From US20060094771A1, “Carvedilol pharmasolve solvate” (priority 2002, published 2006)

Experiment: Solubility of carvedilol in Pharmasolve
Type: physicochemical
Conditions: solvent Pharmasolve (N-methyl-2-pyrrolidone)

solubility of carvedilol in Pharmasolve: 1.6 gram of drug per gram of pharmasolve
Compound: COc1ccccc1OCCNCC(O)COc1cccc2[nH]c3ccccc3c12 (racemic) [carvedilol]
